Consider 19 compounds from paper PMC12821709, “Biomimetic Chromatography as a High-Throughput Tool for Screening Bioaccumulation and Acute Aquatic Toxicity of Pesticides” (Journal of Xenobiotics, 2025).

In brackets after ≈: the same amount, converted by molar mass. Where two headings read alike, the source gives them in different places.

Data set [1] is classed as physicochemical. Here is the method:
All biochromatographic experiments were performed using the gradient IAM protocols developed by Valkó and co-workers and previously implemented in this laboratory. Analyses were carried out on a Prominence-i LC-2030C 3D HPLC system (Shimadzu, Tokyo, Japan) controlled by LabSolutions software (v6.81, Kyoto, Japan) and equipped with an IAM.PC.DD2 column (10 × 4.6 mm, 10.0 µm) packed on the newer ‘Type B’ silica support and protected by a guard column (Regis Technologies, Morton Grove, IL, USA).
Mobile phase A consisted of 50 mM ammonium acetate (VWR International, Leuven, Belgium) in water, adjusted to physiological pH 7.4 with concentrated ammonia solution (Avantor Performance Materials Poland S.A., Gliwice, Poland). Ultrapure water with a resistivity of 18.2 MΩ was obtained from a Milli-Q water purification system (Merck Millipore, Darmstadt, Germany). For phospholipid affinity measurements, mobile phase B was HPLC-grade acetonitrile (Chempur, Piekary Śląskie, Poland). A linear gradient from 0 to 85% B was applied over 5.25 min, followed by an isocratic hold at 85% B for 0.5 min. The mobile phase flow rate was set at 1.5 mL/min, and the column temperature was maintained at 30 °C.
The reference substances used to calculate CHIIAM values were obtained as follows: acetanilide, butyrophenone and octanophenone from Alfa Aesar (Haverhill, MA, USA); acetophenone and paracetamol from Sigma-Aldrich (Steinheim, Germany); and heptanophenone, hexanophenone, propiophenone and valerophenone from Acros Organics (Pittsburgh, PA, USA).
Dimethyl sulfoxide (Avantor Performance Materials Poland S.A., Gliwice, Poland) was used to dissolve the analytes and to prepare stock solutions at a concentration of 200 µg/mL. UV detection was performed in the range 190–300 nm. The injection volume was 5 µL. Each compound was analyzed in duplicate, and the variation in retention times was lower than 2%. Raw retention times for the pesticides and reference standards are available in Zenodo platform https://doi.org/10.5281/zenodo.17672582.

For data set [2], the system named is rainbow trout (Oncorhynchus mykiss). The settings on record: 96 h, ref Pesticide Properties DataBase (PPDB; University of Hertfordshire), cited from earlier work.
The subject of data set [3] is Daphnia magna. To be noted: cited from earlier work.
In data set [4] the test system is fish. The settings on record: cited from earlier work.
Where [5] appears, read: IAM.PC.DD2 column, gradient 0-85% acetonitrile, 50 mM ammonium acetate pH 7.4, 30 °C.
Setting [6] is: 48 h, Daphnia magna, ref Pesticide Properties DataBase (PPDB; University of Hertfordshire).
Setting [7] is: in fish, dimensionless, ref Pesticide Properties DataBase (PPDB; University of Hertfordshire).

Turning to `Cc1c(COC(=O)[C@@H]2[C@H](/C=C(\Cl)C(F)(F)F)C2(C)C)cccc1-c1ccccc1` (racemic) [Bifenthrin, bifenthrin], the “CHIIAM (IAM chromatographic hydrophobicity index)” value in data set [1] (setting [5]) was 54.4; in data set [1] (IAM.PC.DD2 column, gradient 0-85% acetonitrile, 50 mM ammonium acetate pH 7.4, 30 °C, listed as bifenthrin), above 48. For the same compound, the “LC50 Fish” value in data set [2] (listed as bifenthrin) is “≈ 0.00026 mg/L”; in data set [2] it was 0.00026 µg/mL (≈ 0.000615 µM). Moreover, the “EC50 Daphnia” value in data set [3] (setting [6]) was 0.11 ng/mL (≈ 0.00026 µM). Besides, the “BCF (bioconcentration factor)” value in data set [4] (setting [7]) was 1703.

Regarding `C/C(=N\C#N)N(C)Cc1ccc(Cl)nc1` [Acetamiprid, acetamiprid], the “CHIIAM (IAM chromatographic hydrophobicity index)” value in data set [1] (setting [5]) was 13.4. In data set [2], the “LC50 Fish” value was 100 µg/mL (≈ 449 µM). Besides, the “EC50 Daphnia” value in data set [3] (setting [6]) is 49800 ng/mL (≈ 224 µM).

`CCNc1nc(Cl)nc(NC(C)C)n1` [Atrazine, atrazine]: the “CHIIAM (IAM chromatographic hydrophobicity index)” value in data set [1] (setting [5]) is reported as 27.4. Also, the “LC50 Fish” value in data set [2] is 4.5 µg/mL (≈ 20.9 µM). For the same compound, the “EC50 Daphnia” value in data set [3] (setting [6]) was 85000 ng/mL (≈ 394 µM); in data set [3] (48 h, Daphnia magna, ref Pesticide Properties DataBase (PPDB; University of Hertfordshire), listed as atrazine) it was “≈ 85 mg/L”. In data set [4] (setting [7]), the “BCF (bioconcentration factor)” value was 4.3.

As to `COP(=S)(OC)SCn1nnc2ccccc2c1=O` [Azinphos-methyl, azinphos-methyl], the “EC50 Daphnia” value in data set [3] (setting [6]) is 1.1 ng/mL (≈ 0.00347 µM). In addition, the “BCF (bioconcentration factor)” value in data set [4] (setting [7]) is 40.

Take `CO/C=C(/C(=O)OC)c1ccccc1Oc1cc(Oc2ccccc2C#N)ncn1` [Azoxystrobin, azoxystrobin]: in data set [1] (setting [5]), the “CHIIAM (IAM chromatographic hydrophobicity index)” value is reported as 31.6. Also, the “LC50 Fish” value in data set [2] was 0.47 µg/mL (≈ 1.17 µM). Besides, the “EC50 Daphnia” value in data set [3] (setting [6]) is 230 ng/mL (≈ 0.57 µM).

Consider `O=C(Nc1ccccc1-c1ccc(Cl)cc1)c1cccnc1Cl` [Boscalid, boscalid], for which the “CHIIAM (IAM chromatographic hydrophobicity index)” value in data set [1] (setting [5]) was 38.0. The “LC50 Fish” value in data set [2] is 2.7 µg/mL (≈ 7.87 µM). For the same compound, the “EC50 Daphnia” value in data set [3] (setting [6]) was 5330 ng/mL (≈ 15.5 µM). In addition, the “BCF (bioconcentration factor)” value in data set [4] (setting [7]) is recorded as 107; in data set [4] (in fish, dimensionless, ref Pesticide Properties DataBase (PPDB; University of Hertfordshire), listed as boscalid), “≈ 107”.

Consider `CNC(=O)Oc1cccc2ccccc12` [Carbaryl, carbaryl], for which the “EC50 Daphnia” value in data set [3] (setting [6]) was 6.4 ng/mL (≈ 0.0318 µM); in data set [3] (48 h, Daphnia magna, ref Pesticide Properties DataBase (PPDB; University of Hertfordshire), listed as carbaryl), “≈ 0.0064 mg/L”. The “BCF (bioconcentration factor)” value in data set [4] (setting [7]) was 44.

`CCOP(=S)(OCC)Oc1nc(Cl)c(Cl)cc1Cl` [Chlorpyrifos, chlorpyrifos]: the “CHIIAM (IAM chromatographic hydrophobicity index)” value in data set [1] (setting [5]) is on record as 48.1. In addition, in data set [2], the “LC50 Fish” value was 0.025 µg/mL (≈ 0.0713 µM). Besides, the “EC50 Daphnia” value was 0.1 ng/mL (≈ 0.000285 µM) in data set [3] (setting [6]) and 0.1 to 1 ng/mL in data set [3] (48 h, Daphnia magna, ref Pesticide Properties DataBase (PPDB; University of Hertfordshire), listed as chlorpyrifos). In data set [4] (setting [7]), the “BCF (bioconcentration factor)” value is 1374.

With `CCOP(=S)(OCC)Oc1cc(C)nc(C(C)C)n1` [Diazinon, diazinon], in data set [1] (setting [5]), the “CHIIAM (IAM chromatographic hydrophobicity index)” value is given as 39.3. Moreover, the “LC50 Fish” value in data set [2] was 3.1 µg/mL (≈ 10.2 µM). Further, the “EC50 Daphnia” value was 1 ng/mL (≈ 0.00329 µM) in data set [3] (setting [6]) and 0.1 to 1 ng/mL in data set [3] (48 h, Daphnia magna, ref Pesticide Properties DataBase (PPDB; University of Hertfordshire), listed as diazinon). Moreover, the “BCF (bioconcentration factor)” value in data set [4] (setting [7]) is 500.

Regarding `COc1c(Cl)ccc(Cl)c1C(=O)O` [Dicamba, dicamba], the “CHIIAM (IAM chromatographic hydrophobicity index)” value in data set [1] (pH 7.4) worked out at 8.2. In addition, the “LC50 Fish” value in data set [2] is 100 µg/mL (≈ 452 µM). In data set [3] (in vivo), the “EC50 Daphnia” value was 41000 ng/mL (≈ 185 µM). The “BCF (bioconcentration factor)” value in data set [4] (in vivo) is recorded as 15.

Turning to `COP(=S)(OC)Oc1ccc([N+](=O)[O-])c(C)c1` [Fenitrothion, fenitrothion], the “CHIIAM (IAM chromatographic hydrophobicity index)” value in data set [1] (setting [5]) came out at 38.1. Also, in data set [2], the “LC50 Fish” value was 1.3 µg/mL (≈ 4.69 µM). Moreover, in data set [3] (setting [6]), the “EC50 Daphnia” value is 8.6 ng/mL (≈ 0.031 µM). The “BCF (bioconcentration factor)” value in data set [4] (setting [7]) was 29.

`CC1(C)C(C(=O)OC(C#N)c2cccc(Oc3ccccc3)c2)C1(C)C` (stereo not drawn) [Fenpropathrin, fenpropathrin]: in data set [1] (setting [5]), the “CHIIAM (IAM chromatographic hydrophobicity index)” value is given as 48.6. The figures for the “LC50 Fish” value in data set [2] (listed as fenpropathrin) and in data set [2] were “≈ 0.0023 mg/L” and 0.0023 µg/mL (≈ 0.00658 µM), respectively. Besides, the “EC50 Daphnia” value in data set [3] (setting [6]) was 0.53 ng/mL (≈ 0.00152 µM). The “BCF (bioconcentration factor)” value in data set [4] (setting [7]) is listed as 1100.

For `N#Cc1c[nH]cc1-c1cccc2c1OC(F)(F)O2` [Fludioxonil, fludioxonil], the “CHIIAM (IAM chromatographic hydrophobicity index)” value in data set [1] (setting [5]) is 43.5. The “LC50 Fish” value in data set [2] is 0.23 µg/mL (≈ 0.927 µM). Moreover, in data set [3] (setting [6]), the “EC50 Daphnia” value was 400 ng/mL (≈ 1.61 µM). In data set [4] (setting [7]), the “BCF (bioconcentration factor)” value was 336.

As to `CC(C)C1(C)N=C(c2ncccc2C(=O)O)NC1=O` (stereo not drawn) [Imazapyr, imazapyr], the “CHIIAM (IAM chromatographic hydrophobicity index)” value in data set [1] (setting [5]) was −12.1. Moreover, the “LC50 Fish” value in data set [2] was 100 µg/mL (≈ 383 µM). For the same compound, the “EC50 Daphnia” value is 100000 ng/mL (≈ 383 µM) in data set [3] (setting [6]) and “≈ 100 mg/L” in data set [3] (48 h, Daphnia magna, ref Pesticide Properties DataBase (PPDB; University of Hertfordshire), listed as imazapyr). The “BCF (bioconcentration factor)” value in data set [4] (setting [7]) is on record as 2.54.

Regarding `O=[N+]([O-])NC1=NCCN1Cc1ccc(Cl)nc1` [Imidacloprid, imidacloprid], the “CHIIAM (IAM chromatographic hydrophobicity index)” value in data set [1] (setting [5]) is on record as 14.2. Further, the “LC50 Fish” value in data set [2] was 83 µg/mL (≈ 325 µM). Further, the “EC50 Daphnia” value in data set [3] (setting [6]) was 85000 ng/mL (≈ 332 µM). The “BCF (bioconcentration factor)” value in data set [4] (setting [7]) is 0.61; in data set [4] (in fish, dimensionless, ref Pesticide Properties DataBase (PPDB; University of Hertfordshire), listed as imidacloprid), “≈ 0.6”.

`CC1(C)C(C=C(Cl)Cl)C1C(=O)OCc1cccc(Oc2ccccc2)c1` (stereo not drawn) [Permethrin, permethrin]: the “CHIIAM (IAM chromatographic hydrophobicity index)” value in data set [1] (setting [5]) turned out to be 54.8. Moreover, in data set [2], the “LC50 Fish” value was 0.0125 µg/mL (≈ 0.0319 µM). Further, in data set [3] (setting [6]), the “EC50 Daphnia” value is 0.6 ng/mL (≈ 0.00153 µM). The “BCF (bioconcentration factor)” value in data set [4] (setting [7]) is on record as 300.

`CCCC1COC(Cn2cncn2)(c2ccc(Cl)cc2Cl)O1` (stereo not drawn) [Propiconazole, propiconazole]: the “CHIIAM (IAM chromatographic hydrophobicity index)” value in data set [1] (setting [5]) is listed as 38.7. The “LC50 Fish” value in data set [2] was 2.6 µg/mL (≈ 7.6 µM). For the same compound, the “EC50 Daphnia” value in data set [3] (setting [6]) is 10200 ng/mL (≈ 29.8 µM). For the same compound, the “BCF (bioconcentration factor)” value in data set [4] (setting [7]) was 116.

`CC(C)(C)C(O)(CCc1ccc(Cl)cc1)Cn1cncn1` (stereo not drawn) [Tebuconazole, tebuconazole]: in data set [1] (setting [5]), the “CHIIAM (IAM chromatographic hydrophobicity index)” value stood at 39.5. For the same compound, the “LC50 Fish” value in data set [2] is 4.4 µg/mL (≈ 14.3 µM). The “EC50 Daphnia” value in data set [3] (setting [6]) is 2790 ng/mL (≈ 9.06 µM). Also, in data set [4] (setting [7]), the “BCF (bioconcentration factor)” value is listed as 78.

As to `CCNc1nc(Cl)nc(NC(C)(C)C)n1` [Terbuthylazine, terbuthylazine], in data set [1] (setting [5]), the “CHIIAM (IAM chromatographic hydrophobicity index)” value came to 34.3. The “LC50 Fish” value in data set [2] was 2.2 µg/mL (≈ 9.58 µM). The “EC50 Daphnia” value in data set [3] (setting [6]) was 21200 ng/mL (≈ 92.3 µM). Further, the “BCF (bioconcentration factor)” value in data set [4] (setting [7]) is 34; in data set [4] (in fish, dimensionless, ref Pesticide Properties DataBase (PPDB; University of Hertfordshire), listed as terbuthylazine), “≈ 34”.
